From US20060293241A1, “Pharmaceutical composition comprising a factor VII polypeptide and epsilon-aminocaproic acid” (Novo Nordisk HealthCare A/G, priority 2001, published 2006)

Columns and labels:
[1] = tested on: Normal human plasma diluted 10-fold; test: Clot lysis assay (Example 1), turbidity at 650 nm; assay type: biochemical; conditions: in the presence of 10 nM FVIIa; t-PA 8 nM
Method: Clot lysis assay: Normal human plasma diluted 10-fold with buffer (20 mM HEPES, 150 mM NaCl, 5 mM CaCl, pH 7.4) containing Innovin (Dade Behring, 2000-fold dilution), rFVIIa (Novo Nordisk A/S Bagsvaerd, Denmark, various concentrations) and t-PA (American Diagnostica, 8 nM) was added to 96-well ELISA plates and turbidity at 650 nm was measured over time at room temperature. Where indicated, epsilon-Aminocaproic Acid (Sigma, various concentrations) was included.

[2] = tested on: Normal human plasma (NHP); test: Clot lysis assay (Example 2), clot survival in NHP and NHP diluted 1:2 with plasma expander; assay type: biochemical; conditions: in combination with 40 nM FVIIa
Method: Clot lysis assay: Normal human plasma (NHP) and NHP diluted 1:2 with plasma expander Macrodex or HES 200/0.5 used clinically for maintaining blood pressure under surgical procedures was mixed with lipidated recombinant TF (Innovin 1:60,000), CaCl2 10 mM, +/−FVIIa 40 nM, phosfatidylcolin/phosphateidylserine vesicles 6 μM, tPA […] and +/−the indicated doses of e-aminocaproic acid (EACA). Clot survival was measured as the time for clot start until the time for clot lysis.

NCCCCCC(=O)O [EACA, epsilon-aminocaproic acid]
effect on clot lysis time [1]: further prolongation of the clot lysis time
epsilon-Aminocaproic Acid concentration at which effect on clot lysis time was optimal [1]: 1 µM
effect on clot survival time [2]: increase in clot survival time
